This is an account of results in US8338422B2, “Indolin-2-ones and aza-indolin-2-ones” (Janssen Pharmaceutica NV, priority 2007, dated 2012).

SMILES strings stand for the structures. Where “and” joins values, the source holds several entries; their conditions need not be identical. Equal entries are not always repeated.

What all share (type): biochemical
In assay [1] the target is GSK3β (h) (Homo sapiens, UniProt P49841). Description: GSK-3β human kinase assay (SPA). To be noted: for IC50: read-out: GSK3B pIC50 (converted). The method, then:
(§1) The in vitro inhibition of a panel of kinases was assessed using either the scintillation proximity assay (SPA) as described by Cook, N. D. et al., Advances in Experimental Medicine and Biology (1991), 36; p. 525-528; or the Fluorescence Resonance Energy Transfer (FRET) technology as described by Rodems, S. M. et al., Assay Drug Develop. Technol. (2002), 1; p. 9-19.
(§2) In the SPA technology the activity of the kinase of interest is measured using an appropriate biotinylated substrate that is incubated with the aforementioned kinase protein in the presence of (^33P) radiolabeled ATP. (^33P) Phosporylation of the substrate is subsequently measured through binding of the phosphorylated substrate to streptavidine coated beads that are based on the scintillant poly(vinyl toluene) (PVT-Beads). The scintillation intensity is detected by imaging on Leadseeker.
(§3) All kinases are pre-diluted to a 10× working concentration prior to addition into the assay. The composition of the dilution buffer for each kinase is detailed below.
In a final reaction volume of 30 μl, GSK3β (h) (1 μg/ml) is incubated with 25 mM Tris pH 7.4, 10 mM MgCl2, 1 mM DTT, 1 μM peptide Biotin-KRREILSRRPSYR-OH, 1 μM ATP and 2 nM [γ-^33P-ATP] (6.0 μCi/ml). After incubation of 60 minutes at room temperature, the reaction is stopped by addition of […] of stop solution containing 8.7 mM EDTA, BSA 0.17%, 0.17% Triton X-100, 6.25 mg/ml SPA beads (GE-healthcare). The plate is centriguged and read for Scintillation imaging on Leadseeker.

Assay [2] deals with AuroraB (h) (Homo sapiens, UniProt Q96GD4). The assay can be described thus: Aurora-B human kinase assay (SPA). To be noted: for IC50: read-out: AuroraB pIC50 (converted). As for the experimental part:
as §1, §2, §3
In a final reaction volume of 30 μl, AuroraB (h) (0.5 μg/ml) is incubated with 60 mM Hepes pH 7.5, 3 mM MgCl2, 3 mM MnCl2, 3 μM Na3VO4, 0.05 mg/ml PEG, 2 mM DTT, 3 μM Biotin-[…]-OH, 0.5 μM ATP and 2.2 nM [γ-^33P-ATP] (6.8 μCi/ml). After incubation of 60 minutes at room temperature, the reaction is stopped by addition of 40 μL of stop solution containing 8.7 mM EDTA, BSA 0.17%, 0.17% Triton X-100, 5 mg/ml SPA beads (GE-healthcare). The plate is centriguged and read for Scintillation imaging on Leadseeker.

Assay [3] deals with PLK4 (h) (Homo sapiens, UniProt O00444). The assay can be described thus: PLK-4 human kinase assay (SPA). The following applies: for IC50: read-out: PLK4 pIC50 (converted). As for the experimental part:
as §1, §2, §3
In a final reaction volume of 30 μl PLK4 (h) (19 μg/ml) is incubated with 50 mM Hepes pH 8.0, 10 mM MgCl2, 50 mM NaCl, 1 mM NaF, 1 mM DTT, 10 μM of peptide Biotin-RPRGQRDSSYYWE-OH, 1 μM ATP and 2 nM [γ-^33P-ATP] (6.0 μCi/ml). After incubation of 60 minutes at room temperature, the reaction is stopped by addition of 40 μl, of stop solution containing 8.7 mM EDTA, BSA 0.17%, 0.17% Triton X-100, 1.7 mg/ml SPA beads (GE-healthcare). The plate is centriguged and read for Scintillation imaging on Leadseeker.

Assay [4] has as its target CDK1/CyclinB (h) (Homo sapiens, UniProt P06493). Description: CDK1/CyclinB human kinase assay (FRET). To be noted: for IC50: read-out: CDK1 pIC50 (converted). As for the experimental part:
as §1
In the FRET technology the activity of the kinase of interest is measured using an appropriate substrate that is labeled with two fluorophores (coumarin and fluorescein). Phosphorylation is determined using a developing reagent comprising a protease that recognizes and cleaves nonphosphorylated peptides. Cleavage will disturb the FRET between the fluorescein and coumarin on the peptide. Uncleaved, phosphorylated peptides maintain the FRET signal. A ratiometric readout of the donor emission over the acceptor emission quantitates the reaction process.
as §3
In a final reaction volume of 10 μl, CDK1/CyclinB (h) (0.2 μg/ml) is incubated with 50 mM Hepes pH 7.5, 10 mM MgCl2, 1 mM EGTA, 0.01% Brij-35, 2 μM Z'lyte Ser/Thr peptide 12 and 10 μM ATP (Invitrogen's FRET assay). After incubation of 60 minutes at room temperature, the reaction is stopped by addition of 5 μL development reagent containing protease mix. After 60 minutes room temperature the development reaction is stopped by adding 5 μl stop solution. The plate is then read in fluorescence plate reader with excitation: 390 nm and dual emission: 460 and 538 nm. Emission ratio is determined to the formula=Emission signal intensity at 460 nm/Emission signal intensity at 538 nm.

Sequence of CDK1/CyclinB (h) (P06493 whole entry): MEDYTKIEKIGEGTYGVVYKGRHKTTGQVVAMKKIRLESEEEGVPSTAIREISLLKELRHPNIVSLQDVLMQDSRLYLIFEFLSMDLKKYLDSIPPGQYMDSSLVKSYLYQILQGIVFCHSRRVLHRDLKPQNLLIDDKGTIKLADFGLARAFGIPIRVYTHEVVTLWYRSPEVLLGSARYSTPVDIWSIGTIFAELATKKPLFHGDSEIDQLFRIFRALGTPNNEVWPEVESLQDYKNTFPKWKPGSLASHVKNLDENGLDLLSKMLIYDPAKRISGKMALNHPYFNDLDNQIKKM
Sequence of CDK1/CyclinB (h) (P14635 whole entry partner): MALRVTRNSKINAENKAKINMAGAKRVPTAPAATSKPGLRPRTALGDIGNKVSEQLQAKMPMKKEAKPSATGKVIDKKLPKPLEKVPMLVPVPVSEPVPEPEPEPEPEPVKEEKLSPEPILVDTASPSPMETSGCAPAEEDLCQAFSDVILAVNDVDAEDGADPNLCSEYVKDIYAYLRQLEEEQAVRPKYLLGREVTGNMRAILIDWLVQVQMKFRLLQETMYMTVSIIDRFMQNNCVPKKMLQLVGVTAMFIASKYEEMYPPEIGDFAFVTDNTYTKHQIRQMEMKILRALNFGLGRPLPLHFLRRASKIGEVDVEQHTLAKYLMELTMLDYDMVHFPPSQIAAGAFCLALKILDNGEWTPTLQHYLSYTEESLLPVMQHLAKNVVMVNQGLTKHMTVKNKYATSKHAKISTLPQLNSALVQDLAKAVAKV
Sequence of PLK4 (h) (O00444 whole entry): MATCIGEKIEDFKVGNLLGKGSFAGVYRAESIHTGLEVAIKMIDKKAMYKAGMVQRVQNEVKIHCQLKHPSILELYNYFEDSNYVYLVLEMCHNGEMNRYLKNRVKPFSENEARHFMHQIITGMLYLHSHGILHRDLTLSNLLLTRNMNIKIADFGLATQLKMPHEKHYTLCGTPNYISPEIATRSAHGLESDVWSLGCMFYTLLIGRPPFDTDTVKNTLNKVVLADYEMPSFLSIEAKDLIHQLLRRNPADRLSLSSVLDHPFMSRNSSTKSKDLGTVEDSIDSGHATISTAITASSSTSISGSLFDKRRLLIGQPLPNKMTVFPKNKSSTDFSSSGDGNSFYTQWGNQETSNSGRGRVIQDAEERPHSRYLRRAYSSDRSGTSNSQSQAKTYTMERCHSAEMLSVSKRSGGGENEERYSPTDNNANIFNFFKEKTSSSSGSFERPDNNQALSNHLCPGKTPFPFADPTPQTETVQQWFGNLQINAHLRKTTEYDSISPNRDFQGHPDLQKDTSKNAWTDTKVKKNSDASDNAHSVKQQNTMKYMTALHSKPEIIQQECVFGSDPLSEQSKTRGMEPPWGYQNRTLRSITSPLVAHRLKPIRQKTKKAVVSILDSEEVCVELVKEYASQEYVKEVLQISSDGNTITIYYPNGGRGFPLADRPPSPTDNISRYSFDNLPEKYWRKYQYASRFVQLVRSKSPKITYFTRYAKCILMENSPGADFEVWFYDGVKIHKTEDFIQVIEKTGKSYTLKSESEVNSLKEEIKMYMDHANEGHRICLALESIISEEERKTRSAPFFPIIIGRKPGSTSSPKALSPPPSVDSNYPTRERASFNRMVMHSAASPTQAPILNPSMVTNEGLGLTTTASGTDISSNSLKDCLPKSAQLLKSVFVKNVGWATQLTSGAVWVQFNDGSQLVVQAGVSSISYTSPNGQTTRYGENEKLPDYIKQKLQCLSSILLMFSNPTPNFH
Sequence of GSK3β (h) (P49841 whole entry): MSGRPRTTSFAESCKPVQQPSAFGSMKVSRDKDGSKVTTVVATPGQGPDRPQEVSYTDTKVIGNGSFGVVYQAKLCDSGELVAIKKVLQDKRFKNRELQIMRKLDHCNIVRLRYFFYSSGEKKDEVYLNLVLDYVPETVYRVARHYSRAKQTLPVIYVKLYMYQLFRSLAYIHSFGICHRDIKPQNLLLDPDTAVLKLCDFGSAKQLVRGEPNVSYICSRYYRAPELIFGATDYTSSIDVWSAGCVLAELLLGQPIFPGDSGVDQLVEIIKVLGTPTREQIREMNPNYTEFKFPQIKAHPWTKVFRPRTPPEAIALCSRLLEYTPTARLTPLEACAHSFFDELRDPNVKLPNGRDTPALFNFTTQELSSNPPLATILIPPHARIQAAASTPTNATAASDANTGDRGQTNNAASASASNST
Sequence of AuroraB (h) (Q96GD4 whole entry): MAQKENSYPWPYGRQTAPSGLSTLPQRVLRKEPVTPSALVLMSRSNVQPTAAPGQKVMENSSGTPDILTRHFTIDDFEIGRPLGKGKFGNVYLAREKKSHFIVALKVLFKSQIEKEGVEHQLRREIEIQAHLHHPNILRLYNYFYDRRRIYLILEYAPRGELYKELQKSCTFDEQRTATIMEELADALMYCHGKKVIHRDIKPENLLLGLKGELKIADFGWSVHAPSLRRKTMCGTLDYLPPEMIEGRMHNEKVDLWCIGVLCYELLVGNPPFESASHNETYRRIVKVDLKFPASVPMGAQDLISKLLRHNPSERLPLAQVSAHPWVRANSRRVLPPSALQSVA

With `CCN1CCCCCC(=O)N2CCN(CC2)c2cccc3c2C(=CNc2cccc(c2)S(=O)(=O)N(C)CC1=O)C(=O)N3` (mixture of isomers) [Compound 1], the IC50 is 1.82 µM in assay [1], > 10 µM in assay [2], 6.92 µM in assay [3] and > 10 µM in assay [4].
Take `CN1CCCC(=O)N2CCN(CC2)c2ncnc3c2C(=CNc2cccc(c2)C1)C(=O)N3` (mixture of isomers) [Compound 11]: the IC50 in assay [3] was 3.09 µM.
On the same count and under the same terms, for `O=C1Nc2ncnc3c2C1=CNc1ccc(Cl)c(c1)OCCCCC(=O)N1CCN3CC1` (mixture of isomers) [Compound 12] the value was > 10 µM.
Turning to `O=C1Nc2ncnc3c2C1=CNc1cc(ccc1Cl)OCCCCCC(=O)N1CCN3CC1` (mixture of isomers) [Compound 19], the “AuroraB pIC50” value in assay [2] is <5. The “PLK4 pIC50” value in assay [3] is <5.
With `COc1ccc2cc1OCCCCC(=O)N(C)CCCNc1ncnc3c1C(=CN2)C(=O)N3` (mixture of isomers) [Compound 62], the “GSK3B pIC50” value in assay [1] came out at 7.57. The “AuroraB pIC50” value in assay [2] was 7.75. In addition, the “PLK4 pIC50” value in assay [3] is 6.9. For the same compound, the “CDK1 pIC50” value in assay [4] is listed as 6.46.
Regarding `CN1CC(=O)NCC#Cc2cccc3c2/C(=C/Nc2cccc(c2)S1(=O)=O)C(=O)N3` [Compound 4], the IC50 in assay [2] was > 10 µM; in assay [3], 0.102 µM.
On to `COc1ccc2cc1OCCCCCC(=O)N(C)CCCN(C)c1ncnc3c1/C(=C/N2)C(=O)N3` [Compound 84], for which the values for the IC50 in assay [1], in assay [2] and in assay [3] were 0.372 µM, > 10 µM and 2.95 µM, respectively.
With `COc1ccc2cc1OCCCCCCC(=O)N(C)CCCN(C)c1ncnc3c1/C(=C/N2)C(=O)N3` [Compound 85], the results for the IC50 in assay [1], in assay [2] and in assay [3] were 1.1 µM, > 10 µM and 5.01 µM, respectively.
With `CN1CCCCC(=O)N(C)CCNc2ncnc3c2/C(=C/Nc2ccc(N4CCOCC4)c(c2)C1)C(=O)N3` [Compound 93], the IC50 was > 10 µM in assay [2], 7.24 µM in assay [3] and > 10 µM in assay [4].
Regarding `O=C1COc2cccc(c2)N/C=C2\C(=O)Nc3ncnc(c32)N2CCN(CC2)C[C@@H](Cc2ccccc2)N1` [Compound 101], the values for the IC50 in assay [1], in assay [2] and in assay [3] were 0.457 µM, > 10 µM and 3.16 µM, respectively.
On to `CN1CCCNc2ncnc3c2/C(=C/Nc2cccc(c2)OCCN(C)[C@H](CO)C1=O)C(=O)N3` [Compound 102], for which the IC50 in assay [1] is 0.0776 µM; in assay [2], 6.46 µM; in assay [3], 1.95 µM.
For `CN1CCCNc2ncnc3c2/C(=C/Nc2cccc(c2)OCCN(C)[C@H](CO)C1=O)C(=O)N3` [Compound 103], the IC50 in assay [2] was 8.71 µM and 7.76 µM; in assay [3] it was 1.86 µM and 4.17 µM.
In the case of `CN1CCC(=O)N(C)CCNc2ncnc3c2/C(=C/Nc2ccc(Cl)c(c2)OCC(O)C1)C(=O)N3` (centres unmarked) [Compound 104], the figures for the IC50 in assay [1] and in assay [2] were 1.1 µM and 3.39 µM, respectively.
On to `COCCN1CCOc2cccc(c2)N/C=C2\C(=O)Nc3ncnc(c32)NCCN(C)C(=O)C1` [Compound 161], for which the IC50 was 0.832 µM in assay [1], 7.41 µM in assay [2] and 5.13 µM in assay [3].
For the compound `COCCN1CCCOc2cccc(c2)N/C=C2\C(=O)Nc3ncnc(c32)NCCN(C)C(=O)C1` [Compound 162], the IC50 in assay [1] is 2.51 µM; in assay [2] it was > 10 µM; in assay [3] it was 3.09 µM.
As to `COCCN1CCOc2cccc(c2)N/C=C2\C(=O)Nc3ncnc(c32)NCCCN(C)C(=O)C1` [Compound 163], the figures for the IC50 in assay [1], in assay [2] and in assay [3] were 0.0631 µM, 6.46 µM and 0.589 µM, respectively.
The like results for `CN1CCNc2ncnc3c2/C(=C/Nc2cccc(c2)OCCN(C)[C@H](CO)C1=O)C(=O)N3` [Compound 164] were, in that order, 0.759 µM, 5.25 µM and 3.63 µM.
The like results for `CN1CCNc2ncnc3c2/C(=C/Nc2cccc(c2)OCCN2C[C@H](O)C[C@@H]2C1=O)C(=O)N3` [Compound 166] were, in that order, 1.02 µM, > 10 µM and 2.19 µM.
The like results for `O=C1Nc2ncnc3c2/C1=C/Nc1cccc(c1)OCCN1C[C@H](O)C[C@@H]1C(=O)N1CCN3CC1` [Compound 171] were, in that order, 0.309 µM, > 10 µM and > 10 µM.
As to `CN1CCNc2ncnc3c2/C(=C/Nc2cccc(c2)OCCCN(C)[C@H](CO)C1=O)C(=O)N3` [Compound 173], the IC50 in assay [1] was 0.575 µM; in assay [2], > 10 µM; in assay [3], 4.27 µM.
In the case of `COCCN1CCCOc2cc(ccc2Cl)N/C=C2\C(=O)Nc3ncnc(c32)NCCN(C)C(=O)C1` [Compound 174], the IC50 in assay [1] was 1.62 µM and 1.86 µM; in assay [2], > 10 µM; in assay [3] it was > 10 µM.
With `O=C1Nc2ncnc3c2/C1=C/Nc1cccc(c1)OCCCN1C[C@H](O)C[C@@H]1C(=O)N1CCN3CC1` [Compound 175], the IC50 is 1.58 µM and 1.35 µM in assay [1]; > 10 µM in assay [2]; > 10 µM in assay [3].
Take `CN1CCCNc2ncnc3c2/C(=C/Nc2ccc(Cl)c(c2)OCCN(C)[C@H](CO)C1=O)C(=O)N3` [Compound 177]: the IC50 in assay [1] was 0.0661 µM and 0.0457 µM; in assay [2], 2.51 µM and 6.46 µM; in assay [3], 4.37 µM and 7.24 µM.
Take `COCCN1CCCOc2cc(ccc2Cl)N/C=C2\C(=O)Nc3ncnc(c32)N2CCN(CC2)C(=O)C1` [Compound 180]: the IC50 in assay [1] was 3.47 µM and 5.37 µM; in assay [2], > 10 µM; in assay [3], > 10 µM.
Regarding `CN1CCCOc2cc(ccc2Cl)N/C=C2\C(=O)Nc3ncnc(c32)N2CCN(CC2)C(=O)[C@H]1CO` [Compound 181], the IC50 is 2.24 µM in assay [1], > 10 µM in assay [2] and > 10 µM in assay [3].
Turning to `CN1CCNc2ncnc3c2/C(=C/Nc2ccc(Cl)c(c2)OCCCN(C)[C@H](CO)C1=O)C(=O)N3` [Compound 190], the IC50 in assay [1] was 1.55 µM; in assay [2] it was > 10 µM; in assay [3], > 10 µM.
As for `CN1CCNc2ncnc3c2/C(=C/Nc2ccc(Cl)c(c2)OCCN2C[C@H](O)C[C@@H]2C1=O)C(=O)N3` [Compound 194], the IC50 was 0.457 µM in assay [1], > 10 µM in assay [2] and 5.13 µM in assay [3].
On to `O=C1Nc2ncnc3c2/C1=C/Nc1ccc(Cl)c(c1)OCCN1C[C@H](O)C[C@@H]1C(=O)N1CCN3CC1` [Compound 196], for which the IC50 in assay [1] was 1.51 µM; in assay [2], > 10 µM.
The like results for `COCCN1CCCOc2cc(ccc2OC)N/C=C2\C(=O)Nc3ncnc(c32)NCCNC(=O)C1` [Compound 202] were, in that order, 4.68 µM and 3.98 µM.
The like results for `COc1ccc2cc1OCCCN(C)[C@H](CO)C(=O)N1CCN(CC1)c1ncnc3c1/C(=C/N2)C(=O)N3` [Compound 204] were, in that order, 1.35 µM and > 10 µM.
With `COCCN1CCOc2cc(ccc2Cl)N/C=C2\C(=O)Nc3ncnc(c32)NCCCN(C)C(=O)C1` [Compound 205], the IC50 is 0.0933 µM in assay [1] and > 10 µM in assay [2].
